Test results reported in patent publication US20060019892A1 (Florida Atlantic University, priority 2003, published 2006).

How the values were obtained:
[1] = test system: primary cultures of rat neonatal cortex (cultured cortical neurons); format: cell-based
nAChR = details: cited from earlier work

A-O-A-N-S-V*-W-S [gla-1]
effect on Ca^++ flux in the cells [1]: reducing Ca^++ flux | modulation of Ca^++ flux in cultured neurons from rat cortex [1]: modulate Ca^++ flux

HOCCLYGK-CRRYOGCSSASASCCQR [ψPIIIE]
nAChR activity annotation (nAChR): non comp. nAChR

RDOCCYHPTCNMSNPQIC* [EI]
Target: nAChR (subtype) (nAChR): α1γ = α1δβ2 musc.
